Laboratory results reported in BindingDB's records for doi:10.3109/14756369709035812 (Universite Paul Sabatier, 1997).

Biological target: T1, Hexokinase-1 (Saccharomyces cerevisiae (strain ATCC 204508 / S288c), UniProt P04806)
T1 sequence (P04806 whole entry): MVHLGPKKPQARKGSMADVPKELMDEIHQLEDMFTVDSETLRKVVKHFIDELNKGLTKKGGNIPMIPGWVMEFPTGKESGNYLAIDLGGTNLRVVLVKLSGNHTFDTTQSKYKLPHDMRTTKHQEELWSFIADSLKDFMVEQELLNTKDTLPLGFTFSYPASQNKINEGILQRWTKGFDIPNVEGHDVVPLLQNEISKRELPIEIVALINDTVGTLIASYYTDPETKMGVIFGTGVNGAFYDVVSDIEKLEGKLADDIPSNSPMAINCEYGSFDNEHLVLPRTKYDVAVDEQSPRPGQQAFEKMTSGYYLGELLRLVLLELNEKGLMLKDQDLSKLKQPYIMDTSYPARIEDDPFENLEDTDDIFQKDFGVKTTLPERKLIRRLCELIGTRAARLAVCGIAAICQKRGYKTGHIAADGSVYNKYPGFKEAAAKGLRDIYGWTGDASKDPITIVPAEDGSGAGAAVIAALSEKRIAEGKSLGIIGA
Test: Enzyme Inhibition Assay
Details: pH 7.6; 25 °C
Method: The assay phosphotransferase activity was followed spectrophotometrically b reduction of NADP in the presence of an excess of glucose-6-phosphate-dehydrogenase (method A). ATPase activity was measured by spectrophotometric measurement of the rate of oxidation of NADH in the presence of phospho-enol-pyruvate, pyruvated-kinase and lactate-dehydrogenase (method B).

Going from `Nc1ccccc1C(=O)NC1C(O)OC(CO)C(O)C1O` (configuration not stated) [Glucosamine analog, 9] to `Cc1ccccc1C(=O)N[C@@H]1[C@@H](O)[C@H](O)[C@@H](CO)O[C@@H]1O` [Glucosamine analog, 2], the IC50 rises from 1 mM to 8 mM (8-fold).

`Nc1cccc(C(=O)NC2C(O)OC(CO)C(O)C2O)c1` (configuration not stated) [Glucosamine analog, 10] and `O=C(NC1C(O)OC(CO)C(O)C1O)c1cccc([N+](=O)[O-])c1` (configuration not stated) [Glucosamine analog, 8] are the same in IC50: 6 mM for the first, 6 mM for the second.

Going from `O=C(NC1C(O)OC(CO)C(O)C1O)c1ccccc1[N+](=O)[O-]` (configuration not stated) [Glucosamine analog, 7] to `CC(=O)Nc1ccccc1C(=O)NC1C(O)OC(CO)C(O)C1O` (configuration not stated) [Glucosamine analog, 4], the IC50 rises from 3 mM to 18 mM (6-fold). The first is the more potent here.

`O=C(N[C@@H]1[C@@H](O)[C@H](O)[C@@H](CO)O[C@H]1O)c1ccccc1` [Glucosamine analog, 1] was tested, and the IC50 was 7 mM.
